Data on six compounds can be found in patent US12606543B2, “Indole derivatives as serotonergic agents useful for the treatment of disorders related thereto” (priority 2023, dated 2026).

In general, EC50 refers to the concentration that produces a half-maximal response.

For data set [1], the target named is T1, human 5-hydroxytryptamine receptor 1A (5-HT1A) (Homo sapiens, UniProt P08908).
T1 sequence (P08908 1-422): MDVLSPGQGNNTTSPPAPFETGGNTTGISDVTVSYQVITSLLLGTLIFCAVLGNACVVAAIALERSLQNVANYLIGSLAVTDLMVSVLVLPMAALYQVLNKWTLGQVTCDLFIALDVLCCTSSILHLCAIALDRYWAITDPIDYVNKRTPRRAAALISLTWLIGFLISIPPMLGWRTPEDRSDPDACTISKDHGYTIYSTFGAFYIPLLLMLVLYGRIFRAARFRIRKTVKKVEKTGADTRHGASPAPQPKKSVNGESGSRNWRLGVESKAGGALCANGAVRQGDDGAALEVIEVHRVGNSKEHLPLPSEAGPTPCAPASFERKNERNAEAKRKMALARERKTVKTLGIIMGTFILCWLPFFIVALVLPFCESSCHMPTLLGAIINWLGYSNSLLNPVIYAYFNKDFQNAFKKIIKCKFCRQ
The data set is described as follows: Human 5-HT1A functional FLIPR assay (agonist mode). In kind it is cell-based. Details: expressed in transfected cells; host or cells: Flp-In CHO. As to conditions: for RFU@10 μM: normalized fluorescence reading (Fmax−Fmin) at 10 μM, curve fitting with activation (%). The protocol:
The potential excitatory effects of compounds targeting on 5-hydroxytryptamine receptor 1A (5-HT1A) under agonist mode was assessed.
HTR1A&Gα15-CHO cells were cultured in DMEM/F12 medium containing 10% dialyzed FBS, 1× penicillin-streptomycin and 600 μg/mL Hygromycin B. The cells were passaged about three times a week, maintained between ˜30% to ˜90% confluence.
8. Cells were diluted to 4×10^5/mL with cell culture medium.
9. 30 μL/well cell suspensions were added into a 384-well cell plate (The cell density was 12,000 cells/well).
(§1) 2. 10 μL of assay buffer (20 mM HEPES, in 1×HBSS, pH 7.4) was added to each well of the cell plate.
3. 2× dye solution was prepared following the manufacture's instruction of the FLIPR® Calcium 6 assay kit: • i. The dye was diluted with assay buffer. • ii. probenecid was added to the final concentration of 5 mM. • iii. Vortexed vigorously for 1-2 minutes, adjust pH to 7.4.
4. 10 μL of 2× dye solution was added to each well of the cell plate.
(§2) 6. The plate was incubated at 37° C. for 2 hours followed by an additional 15-minute incubation at 25° C.
1. Serotonin was prepared to the concentration of 10 mM with DMSO, 3-folds serial dilutions were performed with DMSO.
2. Prepare the test compound to the concentration of 10 mM with DMSO, preform 3-folds serial dilutions with DMSO.
4. 90 nL/well of serial diluted compounds were transferred from source plate to a 384-well compound plate by using an Echo.
5. 30 μL/well of assay buffer was added to the compound plate.
2. 10 μL of 3× compounds were transferred from the compound plate to the cell plate by FLIPR.
3. The plate was read for 160 sec with 1 sec interval to obtain the data of agonist mode.
(§3) 1. The normalized fluorescence reading (RFU) was calculated as shown below, wherein Fmax and Fmin stand for maximum and minimum of calcium signal during defined time window:
2. EC50 was calculated by fitting RFU against log of compound concentrations with Hill equation using XLfit.

For data set [2], the target named is human 5-hydroxytryptamine receptor 2A (5-HT2A) (Homo sapiens, UniProt P28223). The data set can be described thus: Human 5-HT2A functional FLIPR assay (agonist mode). In kind it is cell-based. Details: expressed in transfected cells; host or cells: Flp-In-293 (HEK293). The settings on record: for RFU@10 μM: normalized fluorescence reading (Fmax−Fmin) at 10 μM, curve fitting with activation (%). The protocol:
The potential excitatory effects of compounds targeting human 5-hydroxytryptamine receptor 2A (5-HT2A) under agonist mode was assessed.
HTR2A&Gα15-HEK293 cells were cultured in DMEM medium containing 10% dialyzed FBS and 1× penicillin-streptomycin, 100 μg/mL Hygromycin B and 300 μg/mL G418. The cells were passaged about three times a week, maintained between ˜30% to ˜90% confluence.
2. For induction, 1 μg/ml tetracycline (final concentration) was added to cell culture medium and incubated for 48 hours prior to seeding cells into plate at 37° C., 5% (v/v) CO2. The cell culture medium was removed from flask. Cells were washed with DP BS.
9. 30 μL/well cell suspensions added into a 384-well cell plate (The cell density was 20,000 cells/well).
10 μL of assay buffer (20 mM HEPES, in 1×HBSS, pH 7.4) was added to each well of the cell plate.
2× dye solution was prepared following the manual of the FLIPR® Calcium 6 Assay Kit: • i. The dye was diluted with assay buffer. • ii. Probenecid was added to the final concentration of 5 mM. • iii. Vortexed vigorously for 1-2 minutes.
4. 10 μL of 2× dye solution was added to each well of the cell plate
as §2
1. Serotonin HCl was prepared to the concentration of 10 mM with DMSO.
2. The test compounds were prepared to the concentration of 10 mM with DMSO.
4. 3-folds serial dilutions were performed with DMSO.
5. 90 nL/well of serial diluted compounds was transferred from source plate to a 384-well compound plate by using an Echo.
6. 30 μL/well of assay buffer (20 mM HEPES in 1×HBSS, pH 7.4) was added to the compound plate.
2. 10 μL of 3× compounds transferred from the compound plate to the cell plate by FLIPR.
3. The plate was read for 160 sec with 1 sec interval and the data of agonist mode was obtained.
as §3
2. EC50 by fitting RFU against log of compound concentrations with Hill equation was calculated using XLfit.
as §1
3. 2× dye solution was prepared following the manual of the FLIPR® Calcium 6 Assay Kit: • i. The dye was diluted with assay buffer. • ii. Probenecid was added to the final concentration of 5 mM. • iii. Vortexed vigorously for 1-2 minutes.
1. The normalized fluorescence reading (RFU) was calculated as shown below, wherein Fmax and Fmin stand for maximum and minimum of calcium signal during defined time window: RFU=Fmax−Fmin

Data set [3] can be described thus: Plasma protein binding by equilibrium dialysis, human. The class given is in vitro ADME. As to conditions: for fraction unbound at 6 h, 1 μM: read-out: % Bound (converted); for recovery at 6 h, 1 µM: human, plasma. The protocol:
The final concentration of compound was 1 μM. The final concentration of DMSO was 0.5%. Ketoconazole was used as positive control in the assay.
The assay was performed in duplicate.
All calculations were carried out using Microsoft Excel. […] The percentages of bound compound were calculated as follows: […]
Ketoconazole was used as positive control in the assay.
(In general: Equilibrium dialysis compares concentrations on both sides of a semipermeable membrane.)

Setting [4] is: human plasma, equilibrium dialysis, 37° C., 6 hours.

Where two headings read alike, the source gives them in different places.

Sequence of human 5-hydroxytryptamine receptor 2A (5-HT2A) (P28223 whole entry): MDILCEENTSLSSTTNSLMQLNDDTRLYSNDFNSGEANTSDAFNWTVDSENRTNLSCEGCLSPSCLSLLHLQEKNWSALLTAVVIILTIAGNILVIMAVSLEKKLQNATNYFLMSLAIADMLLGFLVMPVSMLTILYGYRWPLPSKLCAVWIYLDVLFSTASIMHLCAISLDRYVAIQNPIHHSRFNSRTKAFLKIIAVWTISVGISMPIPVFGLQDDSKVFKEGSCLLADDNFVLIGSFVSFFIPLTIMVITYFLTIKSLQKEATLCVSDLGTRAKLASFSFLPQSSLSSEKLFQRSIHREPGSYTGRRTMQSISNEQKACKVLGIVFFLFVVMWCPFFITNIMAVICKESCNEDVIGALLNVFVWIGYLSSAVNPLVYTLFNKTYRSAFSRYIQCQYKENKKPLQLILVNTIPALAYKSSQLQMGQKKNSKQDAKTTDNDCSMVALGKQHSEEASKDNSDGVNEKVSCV

As for `[2H]C([2H])(c1c[nH]c2ccc(OCCCCCN3C(=O)c4ccccc4C3=O)cc12)[C@H]1CCCN1C([2H])([2H])[2H]` [(R) I-245, (R)-2-(5-((3-((1-(Methyl-d3)pyrrolidin-2-yl)methyl-d2)-1H-indol-5-yl)oxy)pentyl)isoindoline-1,3-dione], in data set [1], the “RFU@10 μM” value is given as 899 RFU. In data set [2], the EC50 was found to be 120 nM and the “RFU@10 μM” value is 8,322 RFU.
Turning to `CN(C)CCc1c[nH]c2ccccc12` [DMT], the entries for the “RFU@10 μM” value in data set [1] and in data set [2] were 204 RFU and 3,493 RFU, respectively. Besides, the half-maximal effective concentration (EC50) in data set [2] (FLIPR calcium, agonist mode, HTR2A&Gα15-HEK293 cells, read-out: h5-HT2A, EC50) was 163 nM.
On to `COCCN1CCC[C@@H]1Cc1c[nH]c2ccc(OC)cc12` [(R) I-98, (R)-5-Methoxy-3-((1-(2-methoxyethyl)pyrrolidin-2-yl)methyl)-1H-indole], for which the “% Remaining @ 6 hours” value in data set [3] (human plasma, 6 hours) stood at 104.64%. In data set [3] (setting [4]), the fraction unbound at 6 h, 1 μM is 0.168 and the recovery at 6 h, 1 µM is 101%. Moreover, in data set [1], the EC50 was found to be 3170 nM and the “RFU@10 μM” value is recorded as 1,666 RFU. Moreover, in data set [2], the EC50 came to 13 nM and the “RFU@10 μM” value is listed as 8,298 RFU.
Consider `CSc1ccc2[nH]cc(C[C@H]3CCCN3C)c2c1` [(R) I-1, (R)-3-((1-Methylpyrrolidin-2-yl)methyl)-5-(methylthio)-1H-indole], for which the “% Remaining @ 6 hours” value in data set [3] (Human plasma, 1 μM, 6 hours, 37° C.) was found to be 103.38%. Also, the fraction unbound at 6 h, 1 μM in data set [3] (Human plasma, 1 μM, equilibrium dialysis 6 hours, 37° C.) was 0.16. In addition, the recovery at 6 h, 1 µM in data set [3] (Human plasma, 1 μM, equilibrium dialysis 6 hours) worked out at 102%. The 50% effective concentration (EC50) in data set [1] was 581 nM; in data set [2], 47 nM. Moreover, the “RFU@10 μM” value is 3,355 RFU in data set [1] and 5,663 RFU in data set [2].
For the compound `[2H]C([2H])(c1c[nH]c2ccc(OCCCCCN3C(=O)C4CCCCC4C3=O)cc12)[C@H]1CCCN1C([2H])([2H])[2H]` (mixture of isomers) [Rac (R) I-248], the “RFU@10 μM” value in data set [1] was 601 RFU. Besides, in data set [2], a half-maximal effect (EC50) was put at 54 nM and the “RFU@10 μM” value was 8,240 RFU.
On to `[2H]C([2H])(c1c[nH]c2ccc(OCCCCN3C(=O)c4ccccc4C3=O)cc12)[C@H]1CCCN1C([2H])([2H])[2H]` [(R) I-244, (R)-2-(4-((3-((1-(Methyl-d3)pyrrolidin-2-yl)methyl-d2)-1H-indol-5-yl)oxy)butyl)isoindoline-1,3-dione], for which, in data set [3] (human plasma, 6 hours), the “% Remaining @ 6 hours” value is listed as 105.89%. In data set [3] (setting [4]), the fraction unbound at 6 h, 1 μM is 0.0142 and the recovery at 6 h, 1 µM came to 90.1%. The “RFU@10 μM” value in data set [1] came out at 616 RFU. For the same compound, in data set [2], the concentration giving a half-maximal response (EC50) was found to be 50 nM and the “RFU@10 μM” value was 7,945 RFU.
